Key:
Test in all cases: Test C greenhouse herbicide test, pre- and postemergence
Type in all cases: in vivo
[1] = tested on: lambsquarters (Chenopodium album)
In short: (§1)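 Percent-control ratings (0 none, 100 complete) came from visual comparison with controls held alongside in the greenhouse for 13–15 d. Treatments covered soil application at sowing and foliar application to young plants 2–18 cm tall.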

[2] = tested on: barnyardgrass (Echinochloa crus-galli)
In short: as §1

[3] = tested on: waterhemp (common waterhemp, Amaranthus rudis)
In short: as §1

[4] = tested on: morningglory (Ipomoea coccinea)
In short: as §1

corn (Zea mays) = tested on: corn (Zea mays)
In short: as §1

[5] = tested on: blackgrass (Alopecurus myosuroides)
In short: as §1

[6] = tested on: nutsedge, yellow (yellow nutsedge, Cyperus esculentus)
In short: as §1

[7] = tested on: velvetleaf (Abutilon theophrasti)
In short: as §1

[8] = tested on: ryegrass, Italian (Italian ryegrass, Lolium multiflorum)
In short: as §1

[9] = tested on: galium (catchweed bedstraw, Galium aparine)
In short: as §1

[10] = tested on: foxtail, giant (giant foxtail, Setaria faberii)
In short: as §1

[11] = tested on: ragweed (common ragweed, Ambrosia elatior)
In short: as §1

[12] = tested on: oilseed rape (Brassica napus)
In short: as §1

[13] = tested on: crabgrass, large (large crabgrass, Digitaria sanguinalis)
In short: as §1

soybean (Glycine max) = tested on: soybean (Glycine max)
In short: as §1

[14] = Postemergence, 31 g ai/ha, scale 0 to 100 (0 no effect, 100 complete control)
[15] = Postemergence, 125 g ai/ha, scale 0 to 100, 0 is no effect, 100 is complete control
[16] = Postemergence, 250 g ai/ha, scale 0 to 100, 0 no effect, 100 complete control, 13 to 15 d
[17] = Preemergence, 31 g ai/ha, scale 0 to 100, 0 is no effect, 100 is complete control
[18] = Preemergence, 62 g ai/ha, scale 0 to 100, 0 is no effect, 100 is complete control
[19] = Preemergence, 125 g ai/ha, scale 0 to 100, 0 is no effect, 100 is complete control
[20] = Preemergence, 250 g ai/ha, scale 0 to 100, 0 no effect, 100 complete control
[21] = postemergence, 62 g ai/ha, scale 0 to 100, 0 no effect, 100 complete control

In the case of Cc1ccc2ccccc2c1-c1c(O)c(C(F)(F)F)nn(C)c1=O [Compound 102], the “Plant response rating, Lambsquarters” value [1, 14] is reported as 75, the “Plant response rating, Lambsquarters” value [1, 15] is reported as 70 and the “Plant response rating, Lambsquarters” value [1, 16] is reported as 100. The “Plant response rating, Lambsquarters” value [1, 17] was 70, the “Plant response rating, Lambsquarters” value [1, 18] was 85 and the “Plant response rating, Lambsquarters” value [1, 19] was 85. For the same compound, the “Lambsquarters plant response rating” value [1, 20] was 100, the “Plant response rating, Barnyardgrass” value [2, 14] was 20 and the “Plant response rating, Barnyardgrass” value [2, 15] was 35. The “Plant response rating, Barnyardgrass” value [2, 16] was 40, the “Plant response rating, Barnyardgrass” value [2, 17] was 5 and the “Plant response rating, Barnyardgrass” value [2, 18] was 10. The “Plant response rating, Barnyardgrass” value [2, 19] was 30, the “Barnyardgrass plant response rating” value [2, 20] was 85 and the “Barnyardgrass plant response rating” value [2, 21] was 20. For the same compound, the “Plant response rating, Waterhemp” value [3, 14] was 25, the “Plant response rating, Waterhemp” value [3, 15] was 80 and the “Plant response rating, Waterhemp” value [3, 16] was 85. For the same compound, the “Plant response rating, Waterhemp” value [3, 17] was 75, the “Plant response rating, Waterhemp” value [3, 18] was 65 and the “Plant response rating, Waterhemp” value [3, 19] was 75. The “Waterhemp plant response rating” value [3, 20] was 85, the “Plant response rating, Morningglory” value [4, 14] was 100 and the “Plant response rating, Morningglory” value [4, 15] was 100. For the same compound, the “Plant response rating, Morningglory” value [4, 16] was 100, the “Plant response rating, Morningglory” value [4, 17] was 45 and the “Plant response rating, Morningglory” value [4, 18] was 75. For the same compound, the “Plant response rating, Morningglory” value [4, 19] was 85, the “Morningglory plant response rating” value [4, 20] was 98 and the “Plant response rating, Corn” value (corn (Zea mays); [14]) was 0. The “Plant response rating, Corn” value (corn (Zea mays); [15]) was 10, the “Plant response rating, Corn” value (corn (Zea mays); [16]) was 10 and the “Plant response rating, Corn” value (corn (Zea mays); [17]) was 5. The “Plant response rating, Corn” value (corn (Zea mays); [18]) was 10, the “Plant response rating, Corn” value (corn (Zea mays); [19]) was 20 and the “Corn plant response rating” value (corn (Zea mays); [20]) was 30. The “Corn plant response rating” value (corn (Zea mays); [21]) was 0, the “Plant response rating, Blackgrass” value [5, 14] was 0 and the “Plant response rating, Blackgrass” value [5, 15] was 5. For the same compound, the “Plant response rating, Blackgrass” value [5, 16] was 10, the “Plant response rating, Blackgrass” value [5, 17] was 0 and the “Plant response rating, Blackgrass” value [5, 18] was 50. For the same compound, the “Plant response rating, Blackgrass” value [5, 19] was 45, the “Blackgrass plant response rating” value [5, 20] was 70 and the “Blackgrass plant response rating” value [5, 21] was 5. For the same compound, the “Plant response rating, Nutsedge, Yellow” value [6, 14] was 20, the “Plant response rating, Nutsedge, Yellow” value [6, 15] was 60 and the “Plant response rating, Nutsedge, Yellow” value [6, 16] was 75. For the same compound, the “Plant response rating, Nutsedge, Yellow” value [6, 17] was 15, the “Plant response rating, Nutsedge, Yellow” value [6, 18] was 70 and the “Plant response rating, Nutsedge, Yellow” value [6, 19] was 75. The “Nutsedge, Yellow plant response rating” value [6, 20] was 75, the “Plant response rating, Velvetleaf” value [7, 14] was 30 and the “Plant response rating, Velvetleaf” value [7, 15] was 100. For the same compound, the “Plant response rating, Velvetleaf” value [7, 16] was 100, the “Plant response rating, Velvetleaf” value [7, 17] was 65 and the “Plant response rating, Velvetleaf” value [7, 18] was 85. The “Plant response rating, Velvetleaf” value [7, 19] was 85, the “Velvetleaf plant response rating” value [7, 20] was 100 and the “Plant response rating, Ryegrass, Italian” value [8, 14] was 0. The “Plant response rating, Ryegrass, Italian” value [8, 15] was 25, the “Plant response rating, Ryegrass, Italian” value [8, 16] was 30 and the “Plant response rating, Ryegrass, Italian” value [8, 17] was 15. The “Plant response rating, Ryegrass, Italian” value [8, 18] was 25, the “Plant response rating, Ryegrass, Italian” value [8, 19] was 50 and the “Ryegrass, Italian plant response rating” value [8, 20] was 70. For the same compound, the “Plant response rating, Galium” value [9, 14] was 90, the “Plant response rating, Galium” value [9, 15] was 95 and the “Plant response rating, Galium” value [9, 16] was 95. For the same compound, the “Plant response rating, Galium” value [9, 19] was 95, the “Galium plant response rating” value [9, 20] was 95 and the “Plant response rating, Foxtail, Giant” value [10, 14] was 20. For the same compound, the “Plant response rating, Foxtail, Giant” value [10, 15] was 60, the “Plant response rating, Foxtail, Giant” value [10, 16] was 75 and the “Plant response rating, Foxtail, Giant” value [10, 17] was 30. The “Plant response rating, Foxtail, Giant” value [10, 18] was 75, the “Plant response rating, Foxtail, Giant” value [10, 19] was 85 and the “Foxtail, Giant plant response rating” value [10, 20] was 90. The “Plant response rating, Ragweed” value [11, 14] was 95, the “Plant response rating, Ragweed” value [11, 15] was 100 and the “Plant response rating, Ragweed” value [11, 16] was 100. The “Plant response rating, Ragweed” value [11, 17] was 70, the “Plant response rating, Ragweed” value [11, 18] was 75 and the “Plant response rating, Ragweed” value [11, 19] was 90. The “Ragweed plant response rating” value [11, 20] was 100, the “Plant response rating, Oilseed Rape” value [12, 14] was 0 and the “Plant response rating, Oilseed Rape” value [12, 15] was 5. For the same compound, the “Plant response rating, Oilseed Rape” value [12, 16] was 30, the “Plant response rating, Oilseed Rape” value [12, 17] was 0 and the “Plant response rating, Oilseed Rape” value [12, 18] was 10. For the same compound, the “Plant response rating, Oilseed Rape” value [12, 19] was 10, the “Oilseed Rape plant response rating” value [12, 20] was 35 and the “Plant response rating, Crabgrass, Large” value [13, 14] was 5. The “Plant response rating, Crabgrass, Large” value [13, 15] was 20, the “Plant response rating, Crabgrass, Large” value [13, 16] was 15 and the “Plant response rating, Crabgrass, Large” value [13, 17] was 0. The “Plant response rating, Crabgrass, Large” value [13, 18] was 5, the “Plant response rating, Crabgrass, Large” value [13, 19] was 30 and the “Crabgrass, Large plant response rating” value [13, 20] was 55. For the same compound, the “Crabgrass, Large plant response rating” value [13, 21] was 10, the “Plant response rating, Soybean” value (soybean (Glycine max); [14]) was 0 and the “Plant response rating, Soybean” value (soybean (Glycine max); [15]) was 10. For the same compound, the “Plant response rating, Soybean” value (soybean (Glycine max); [16]) was 10, the “Plant response rating, Soybean” value (soybean (Glycine max); [17]) was 0 and the “Plant response rating, Soybean” value (soybean (Glycine max); [18]) was 5. The “Plant response rating, Soybean” value (soybean (Glycine max); [19]) was 5 and the “Soybean plant response rating” value (soybean (Glycine max); [20]) was 5.

— US10597388B2, “Pyridazinone herbicides” (FMC CORPORATION, priority 2014, dated 2020)
